Legend:
[1] = Identification of metabolite in human plasma samples by LC/MS/MS and LC/NMR; format: in vivo; details: human plasma after intravenous administration of 5-cyclopropyl-1-(quinolin-5-yl)-1H-pyrazole-4-carbonyl]guanidine
Text: It was identified from samples of human plasma obtained after intravenous administration of 5-cyclopropyl-1-(quinolin-5-yl)-1H-pyrazole-4-carbonyl]guanidine to human subjects. The structure of this compound was independently verified by chemical synthesis. In another aspect of this invention [5-cyclopropyl-1-(2-quinolon-5-yl)-1H-pyrazole-4-carbonyl]guanidine may be prepared by administering [5-cyclopropyl-1-(quinolin-5-yl)-1H-pyrazole-4-carbonyl]guanidine to a human and isolating the desired metabolite from the plasma. Alternatively, the metabolite need not be isolated from the human since it is produced in vivo. […]
An aliquot (100 μL or 50 μL) of the concentrated sample was injected onto an LC/MS/MS instrument equipped with a Zorbax Rx-C8 4.6×150 mm column, analyzed on PE Sciex API 2000 or Finnigan LCQ mass spectrometer and monitored by UV detector at 254 nm. […] Under these LC conditions a metabolite was detected at a retention time of 11.8 minutes ([5-cyclopropyl-1-(quinolin-5-yl)-1H-pyrazole-4-carbonyl]guanidine was detected at 13.7 minutes).
The salts were removed from the above concentrated sample by solid phase extraction. […] 50 μL of this sample was injected onto an LC/NMR instrument equipped with a Zorbax Rx-C8 4.6×150 mm column, analyzed on a Bruker 500 MHz NMR spectrometer and monitored by UV detector at 235 nm. […]

human NHE-1 = human NHE-1 (Homo sapiens, UniProt P19634); test: Measurement of human NHE-1 inhibitory activity (NHE-mediated recovery of intracellular pH, BCECF fluorescence)
Chain of human NHE-1 (P19634 whole entry): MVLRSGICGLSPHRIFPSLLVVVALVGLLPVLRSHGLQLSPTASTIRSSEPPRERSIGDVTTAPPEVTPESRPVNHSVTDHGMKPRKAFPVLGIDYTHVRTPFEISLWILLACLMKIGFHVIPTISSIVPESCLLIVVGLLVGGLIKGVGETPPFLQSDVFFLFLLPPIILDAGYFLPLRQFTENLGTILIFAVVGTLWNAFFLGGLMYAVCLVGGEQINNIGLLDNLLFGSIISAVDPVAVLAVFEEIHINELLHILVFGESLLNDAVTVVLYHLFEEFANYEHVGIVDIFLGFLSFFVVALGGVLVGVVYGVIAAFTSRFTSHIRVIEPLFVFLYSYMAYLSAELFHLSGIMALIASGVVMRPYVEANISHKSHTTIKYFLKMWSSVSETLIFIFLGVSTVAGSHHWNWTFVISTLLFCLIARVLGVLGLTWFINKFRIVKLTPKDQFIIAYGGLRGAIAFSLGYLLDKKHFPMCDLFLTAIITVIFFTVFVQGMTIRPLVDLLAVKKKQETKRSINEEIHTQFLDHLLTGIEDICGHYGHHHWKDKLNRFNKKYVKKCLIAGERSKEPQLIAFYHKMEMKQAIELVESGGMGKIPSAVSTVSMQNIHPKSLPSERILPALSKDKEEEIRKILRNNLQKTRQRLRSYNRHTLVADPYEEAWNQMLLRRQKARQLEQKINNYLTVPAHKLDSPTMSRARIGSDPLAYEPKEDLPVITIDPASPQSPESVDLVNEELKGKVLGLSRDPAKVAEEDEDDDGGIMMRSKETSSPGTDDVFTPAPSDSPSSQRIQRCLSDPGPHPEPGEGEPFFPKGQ
Description: Methodologies for measurement of human NHE-1 activity and inhibitor potency are based on those published by Watson et al., Am. J. Physiol., 24:G229-G238, 1991), where NHE-mediated recovery of intracellular pH is measured following intracellular acidification. Thus, fibroblasts stably expressing human NHE-1 (Counillon, L. et al., Mol. Pharmacol., 44:1041-1045 (1993) are plated onto collagen coated 96 well plates (50,000/well) and grown to confluence in growth media (DMEM high glucose, 10% fetal bovine serum, 50 u/ml penicillin and streptomycin). Confluent plates are incubated for 30 min at 37° C. with the pH sensitive fluorescent probe BCECF (5 μM; Molecular Probes, Eugene, Oreg.). BCECF loaded cells are incubated for 30 min at 37° C. in acid loading media (70 mM choline chloride, 50 mM NHCl4, 5 mM KCl, 1 mM MgCl2, 1.8 mM CaCl2, 5 mM glucose, 10 mM HEPES, pH 7.5), and then placed in a Fluorescent Imaging Plate Reader (Molecular Devices, CA). BCECF fluorescence is monitored using excitation and emission wavelengths of 485 nm and 525 nM, respectively. Intracellular acidification is initiated via rapid replacement of acid loading media with recovery media (120 mM NaCl, 5 mM KCl, 1 mM MgCl2, 1.8 mM CaCl2, 5 mM glucose, 10 mM HEPES, pH 7.5)±test compound, and NHE-mediated recovery of intracellular pH is monitored as the subsequent time-dependent increase BCECF fluorescence.

metabolite identification in human plasma [1]: human metabolite
IC50 (human NHE-1): 200 nM
Compound: N=C(N)NC(=O)c1cnn(-c2cccc3[nH]c(=O)ccc23)c1C1CC1 [Formula I, [5-cyclopropyl-1-(2-quinolon-5-yl)-1H-pyrazole-4-carbonyl]guanidine]

From patent US6852733B2, “Sodium-hydrogen exchanger type 1 inhibitor” (Pfizer Inc., priority 2000, dated 2005)
